Ends that are not written are not given here.
Experiments:
DPPIV [1] = biological target: T1, DPPIV (Homo sapiens, UniProt P27487); assay: In vitro plasma stability (kinetic test method), GLP-1 (active) ELISA; details: for remaining at 9 h, 1 μM: human, pH 7.8
Target sequence in this assay (P27487 whole entry): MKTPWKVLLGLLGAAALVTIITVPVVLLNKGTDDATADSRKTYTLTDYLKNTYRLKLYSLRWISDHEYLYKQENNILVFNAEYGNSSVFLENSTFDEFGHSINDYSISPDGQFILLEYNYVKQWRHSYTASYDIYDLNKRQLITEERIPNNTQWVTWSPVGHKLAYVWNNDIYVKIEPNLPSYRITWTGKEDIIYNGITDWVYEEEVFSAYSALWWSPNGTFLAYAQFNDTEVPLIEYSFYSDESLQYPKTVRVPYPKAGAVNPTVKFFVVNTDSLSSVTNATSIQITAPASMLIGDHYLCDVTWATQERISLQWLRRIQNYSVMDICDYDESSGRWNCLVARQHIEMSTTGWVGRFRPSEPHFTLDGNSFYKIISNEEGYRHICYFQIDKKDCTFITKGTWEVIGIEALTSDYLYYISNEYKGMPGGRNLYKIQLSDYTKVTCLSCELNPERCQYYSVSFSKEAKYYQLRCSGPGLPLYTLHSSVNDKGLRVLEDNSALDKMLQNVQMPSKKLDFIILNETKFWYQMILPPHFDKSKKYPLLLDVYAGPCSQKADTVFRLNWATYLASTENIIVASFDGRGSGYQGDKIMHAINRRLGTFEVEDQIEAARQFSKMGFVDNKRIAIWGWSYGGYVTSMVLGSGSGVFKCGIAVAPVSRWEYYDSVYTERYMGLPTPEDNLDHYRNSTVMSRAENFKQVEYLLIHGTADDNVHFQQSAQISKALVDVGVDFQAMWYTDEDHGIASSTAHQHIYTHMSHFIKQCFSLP
Description: Results are from triplicates in at least two independent experiments.

GLP-1 receptor = biological target: T2, GLP-1 receptor (Homo sapiens, UniProt P43220); type: cell-based
T2 construct: expressed in transfected cells; host or cells: CHO cell line
Description: GLP-1 Bioassay cAMP Increase
The in vitro bioactivity was tested in a GLP-1 receptor transfected CHO cell line by determining the half maximum effective dose (ED50)

DPPIV [2] = biological target: T1, DPPIV; assay: In vitro human plasma stability of GLP-1 CM peptides; details: 20 ng/ml, 37° C., 3 hours
Target sequence in this assay (P27487 39-766 limits assumed): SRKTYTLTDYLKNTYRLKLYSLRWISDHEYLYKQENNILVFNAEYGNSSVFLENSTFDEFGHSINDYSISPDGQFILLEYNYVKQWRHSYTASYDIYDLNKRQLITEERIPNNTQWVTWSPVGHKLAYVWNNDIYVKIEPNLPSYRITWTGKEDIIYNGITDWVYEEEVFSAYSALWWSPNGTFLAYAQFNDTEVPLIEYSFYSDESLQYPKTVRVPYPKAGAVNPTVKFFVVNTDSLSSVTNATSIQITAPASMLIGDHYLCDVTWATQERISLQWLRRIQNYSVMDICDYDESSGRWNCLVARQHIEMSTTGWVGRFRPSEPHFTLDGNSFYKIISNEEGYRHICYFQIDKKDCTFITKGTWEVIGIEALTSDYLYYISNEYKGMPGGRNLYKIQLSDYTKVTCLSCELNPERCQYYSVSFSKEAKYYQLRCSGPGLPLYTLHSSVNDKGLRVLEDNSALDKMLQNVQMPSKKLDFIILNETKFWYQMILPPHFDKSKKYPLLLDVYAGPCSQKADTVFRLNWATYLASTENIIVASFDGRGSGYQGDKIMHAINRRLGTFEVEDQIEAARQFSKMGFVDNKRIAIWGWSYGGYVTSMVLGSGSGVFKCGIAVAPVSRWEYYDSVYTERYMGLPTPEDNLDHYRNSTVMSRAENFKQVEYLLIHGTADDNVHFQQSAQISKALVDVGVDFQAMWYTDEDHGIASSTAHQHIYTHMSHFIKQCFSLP
Description: Dipeptidylpeptidase activity of the plasma was inhibited by an DPP-IV inhibitor (#DPP4, Biotrend).

diabetic db/db mice = assay: In vivo bioactivity of PEGylated peptide in diabetic db/db mice
[3] = test system: C57BL/KsJ@Rj-db (db/db) mice; assay: Long-term treatment of db/db mice; type: in vivo
Description: Peptides or vehicle will be given once daily (group A-D) between 2°°-3°° p m. subcutaneously in the skin fold of the back. The regimen was continued for 18 weeks. From week 12 to 18 treatment was done twice a day in 6 of 12 animals per group.
Various parameters of the mice were investigated, i.e. health status (1), body weight (2), food consumption (3), blood glucose (4), glucose tolerance test (5), insulin data (6), glycosylated hemoglobin (7), pathology (8), and restimulation of T cells (9). • Health status (1) was good in all groups, no side effects of the treatment have been seen. • Body weight (2) was lower in all treated groups after 18 weeks of treatment (FIG. 13). […] The mean values of 12 animals per group are plotted. […] The relative body weight increase of 12 animals per group after a treatment of 122 days is plotted. […] Non-fasted blood glucose level (1 hour after peptide injection) is shown in FIG. 15A, i.e. the effect of a treatment with saline (A), CM1 (B), CM3-ANA01 (C) or exendin (D) on the non-fasted blood glucose levels. Blood glucose was measured from a tail bleed 1 hour after s.c. injection of saline (A) or the peptides CM1 (B), CM3-ANA01 (C) or exendin (D) in a concentration of 24 nmol/kg. […] Blood glucose was measured from a tail bleed after a 12-hour overnight fast 18 hours after s.c. injection of the test substances. Fasted blood glucose level 18h after peptide injection is reduced in the CM1 and CM3-ANA01 group. • An i.p. glucose tolerance test (5) (IPGTT) was conducted after 8 weeks of treatment on mice of the groups A-D. The basal blood glucose value (0 min) of 12 hour fasted animals has been determined by tail bleed followed by an s.c. injection of the test substance and an i.p. injection of 20% glucose solution (1g glucose per kg). Blood glucose has been further on determined 15, 30, 45, 60, 90 and 120 minutes after glucose injection. […] The serum was analysed for insulin with the Insulin Mouse Ultrasensitive ELISA (Cat.# EIA-3440, DRG). […]

BALB/c mice [4] = assay: In vivo immunogenicity study; details: 5 repeated injections, 70 μg peptide/dose, i.v., over 22d
Description: (§1) The trial was done in BALB/c mice receiving 5 repeated injections (70 μg peptide/dose, i.v.) over 22d (n=5).
(§2) Spleens of the treated and control mice were explanted, T-cells isolated and stimulated with increasing amounts of antigene. Proliferative recall response is measured.

[5] = test system: diabetic C57BL/KsJ@Rj-db (db/db) mice; assay: Dose-efficacy study in diabetic mice; type: in vivo
Description: A sixth group was treated with saline only. 7 animals were treated per group. Blood glucose was determined from tail bleeds directly before, 1 hour and 4 hours after injection.
The results are shown in dose-response curves according to FIG. 12 ([…] (GLP-1), FIG. 12B (CM1), FIG. 12C (CM3) and FIG. 12D (CM3-ANA01)). For every test substance a graph was prepared with the percentage difference of the blood glucose in relation to the start value for the different concentrations. […] Both models are sigmoidal fit models suitable for dose response evaluation. For every peptide the plasma glucose ED50 values (single s.c. dose in μg/mouse) have been determined from the percentage decrease of blood glucose.
The fall in plasma glucose and the corresponding significance levels are given for the time period 1 hour (@1 h) and 4 hours (@4 h) after peptide injection. Differences have been observed in the long-term efficacy of the peptides.

[6] = test system: type II diabetic mice (C57BL/Ks-Lepr db/db); assay: In vivo bioactivity in type II diabetic mice; details: 5 μg peptide s.c. twice a day, day 2, 4, 7, 10
Description: 11-week-old type II diabetic mice (C57BL/Ks-Lepr^db/db, Harlan) were treated with 5 μg peptide by subcutaneous injection twice a day at 9 a.m. and 5 p.m. (n=5 per group). Blood glucose was measured before (day 0) and after treatment with GLP^CM peptides (Day 2, 4, 7, 10) at 10 a.m. after an overnight fastening period. Data were presented in relation to blood glucose levels measured at day 0.
Best results were obtained with recombinant SEQ ID NO:6 (CM1) and synthetic SEQ ID NO:8 (CM3). In FIG. 9 (y-axis) the relative effect of the treatment is shown. Blood glucose at day ═O was set to 1. Untreated animals undergo continuous increase in blood glucose level over time, whereas animals treated with inventive peptides display grosso modo a continuous decrease of the blood glucose level over time.

BALB/c mice [7] = details: mouse, in vivo
Description: as §1, §2

T2 sequence (P43220 24-463, species assumed): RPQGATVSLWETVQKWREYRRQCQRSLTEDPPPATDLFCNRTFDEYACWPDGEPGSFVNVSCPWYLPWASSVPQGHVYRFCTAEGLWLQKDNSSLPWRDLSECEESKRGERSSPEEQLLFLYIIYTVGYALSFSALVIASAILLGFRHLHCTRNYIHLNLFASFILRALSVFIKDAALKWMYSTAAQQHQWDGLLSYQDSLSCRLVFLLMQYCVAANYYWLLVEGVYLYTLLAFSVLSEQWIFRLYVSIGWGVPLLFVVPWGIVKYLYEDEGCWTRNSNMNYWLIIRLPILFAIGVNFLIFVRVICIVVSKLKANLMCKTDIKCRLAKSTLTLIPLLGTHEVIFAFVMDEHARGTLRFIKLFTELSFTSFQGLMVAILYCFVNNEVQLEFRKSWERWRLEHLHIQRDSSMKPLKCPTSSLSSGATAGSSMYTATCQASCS

In the case of “HAEGTFTSDVSSYLEGQAAKEFIAWLVKGRGRRDFPEEVAIAEELG [CM3]”, the remaining at 9 h, 1 μM (DPPIV [1]; 10% human plasma) is reported as 63%, the “ED50 (half maximum effective dose), cAMP increase” value (GLP-1 receptor) is reported as 187 µM and the “stability in human plasma in vitro” value (DPPIV [2]) is reported as “significantly stabilized”.
In the case of “HAEGTFTSDVSSYLEGQAAKEFIAWLVKGRGRRDAAAAVAIAEELG [CM3-ANA03]”, the “in vitro plasma stability (comparison)” value (DPPIV [1]; 10% human plasma, 37° C.) is reported as “strongly reduced stability compared to CM3”.
For “HAEGTFTSDVSSYLEGQAAKEFIAWLVKGRGAADFPEEVAIAEELG [CM3-ANA01]”, the “active GLP-1 as a % of the 0 h value after 9 h” value (DPPIV [1]; 1 μM peptide, 10% human plasma, 37° C., 9 h) was 84%, the “in vitro plasma stability (comparison)” value (DPPIV [1]; 10% human plasma, 37° C.) was “higher plasma stability than CM3” and the remaining at 9 h, 1 μM (DPPIV [1]; 10% human plasma) was 84%. For the same substance, the “ED50 (half maximum effective dose), cAMP increase” value (GLP-1 receptor) was 159 µM.
With “PEG-CM3-ANA08: CM3-ANA08 covalently conjugated to unbranched 40 kDa mPEG maleimido propionamide via thiol of the C-terminal cysteine (HAEGTFTSDVSSYLEGQAAKEFIAWLVKGRGRRDFPEEVAIAEELGC)” the signs of toxicity (diabetic db/db mice; mouse, in vivo) was “No signs of toxicity”, the blood glucose decrease (diabetic db/db mice; treated versus non-treated group) was “significant blood glucose decrease” and the “peptide detected in the GLP-1 active ELISA” value (DPPIV [1]; 0 hours) was 19%. The “ED50 relative to CM3 (lowered in vitro bioactivity)” value (GLP-1 receptor; GLP-1 receptor transfected CHO cell line) was “approximately 5 times”.
In the case of GLP-1(7-37)—IP2-RR-GLP1(7-37) [CM1], the food consumption ([3]; 24 nmol/kg s.c., 122 day treatment period, compared to the control) is reported as “significantly lower”, the “fasted blood glucose level” value ([3]; 12-hour overnight fast, 18h after peptide injection) is reported as “reduced” and the “non fasted blood glucose level compared to control” value ([3]; 1h after s.c. peptide injection, 24 nmol/kg) is reported as 55%. The toxicity (BALB/c mice [4]) was “no toxicity”, the “ED50 (plasma glucose)” value ([5]; single s.c. dose, 1 h measurements, percentage decrease of blood glucose) was 0.61 μg/mouse and the “fall in plasma glucose @1 h” value ([5]; single s.c. injection of 1.1-3.0 nmol peptide, versus control, 1 hour) was 50% ± 14%. The “fall in plasma glucose @4 h” value ([5]; single s.c. injection of 1.1-3.0 nmol peptide, versus control, 4 hours) was 0%, the “anti-hyperglycemia effect (blood glucose relative to day 0)” value [6] was “anti-hyperglycemia effect” and the clinically relevant immunogenicity (BALB/c mice [7]) was “absence of any clinically relevant immunogenicity”.
